Reference: patent US8809344B2, “Compounds, compositions, and methods for control of hepatitis C viral infections” (priority 2008, dated 2014)
pEC50: −log10 of the molar value. Like-named read-outs stand apart in the source and are kept apart here.

Assays:
Type in all cases: cell-based
[1] = test system: stable genotype 1b (Con1 strain) subgenomic replicon; assay: EC50 in Clone VI cells, quantitative RT-PCR of HCV RNA; details: Hepatitis C virus, 72 hour
Description: Inhibition of HCV replication by compound AP0080978 (enantiomer 2 from Example 1) was also assayed by exposing cells harboring either HCV genotype 1a, HCV genotype 1b, HCV genotype 2a replicons. […] Final DMSO percentage was 1% in a total volume of 1 ml. After a 72 hour treatment period, total RNA was extracted, quantified via RiboGreen™ assay (Invitrogen-Molecular Probes, Eugene, Oreg., USA), and equivalent amounts of RNA were subjected to quantitative RT-PCR to quantify HCV RNA levels. […] For each replicate culture, HCV RNA levels were measured by blot hybridization and normalized to β-actin RNA levels. Cytotoxicity was measured using an established neutral red dye uptake assay (Korba and Gerin (1992) Antiviral Res 19:55; Okuse et al (2005) Antiviral Res 65: 23). […] Activity and toxicity against genotype 2a was evaluated in Huh7 cells harboring a stable hRluc-containing subgenomic genotype 2a replicon containing sequence from both J6 and JFH1 strains. […]
Additional compounds of formula (I) shown in FIG. 1 were also shown to inhibit HCV RNA replication. The effects of various compounds of formula (I) on HCV RNA replicon levels were determined by measuring HCV replicon RNA levels in cells treated with various concentrations of the compounds. […] Total RNA was extracted 72 hours later, and HCV and GAPDH RNA levels were quantified via quantitative RT-PCR. […]

[2] = test system: stable genotype 1b subgenomic replicon (Con1 strain); assay: Clone II cells, HCV RNA by blot hybridization normalized to β-actin RNA; details: Hepatitis C virus, 72 h
Description: (§1) Inhibition of HCV replication by compound AP0080978 (enantiomer 2 from Example 1) was also assayed by exposing cells harboring either HCV genotype 1a, HCV genotype 1b, HCV genotype 2a replicons. […] Final DMSO percentage was 1% in a total volume of 1 ml. After a 72 hour treatment period, total RNA was extracted, quantified via RiboGreen™ assay (Invitrogen-Molecular Probes, Eugene, Oreg., USA), and equivalent amounts of RNA were subjected to quantitative RT-PCR to quantify HCV RNA levels. Activity against genotype 1b was re-confirmed using Clone II cells (U.S. Pat. No. 7,049,428) that contain a stable subgenomic replicon (Con1 strain) with a Arg 1164 Gly adaptive mutation that is distinct from the Ser 1179 Ile adaptive mutation present in Clone VI cells. In this assay, cells were seeded into 96-well plates and treated in quadruplicate with varying concentration of compounds for 72 hours. For each replicate culture, HCV RNA levels were measured by blot hybridization and normalized to β-actin RNA levels. Cytotoxicity was measured using an established neutral red dye uptake assay (Korba and Gerin (1992) Antiviral Res 19:55; Okuse et al (2005) Antiviral Res 65: 23). […] Activity and toxicity against genotype 2a was evaluated in Huh7 cells harboring a stable hRluc-containing subgenomic genotype 2a replicon containing sequence from both J6 and JFH1 strains. […]

[3] = Neutral red dye uptake cytotoxicity assay; details: human, Experiment 3
Description: as §1

[4] = test system: genotype 1a replicon H/FL-Neo(L+I) (H77 strain); assay: Genotype 1a replicon in Huh7.5 cells, HCV RNA by blot hybridization; details: Hepatitis C virus, Huh7.5, 72 h
[5] = test system: stable genotype 1b (Con1 strain) subgenomic replicon in control Clone A cells; assay: Control Clone A cells, HCV RNA by quantitative RT-PCR; details: Hepatitis C virus, 72 h
Description: In an effort to gain insight into the target of 80978, Clone A cells were selected for resistance to 80978. Clone A cells are a human hepatoma cell line that contains a stable genotype 1b (Con1 strain) subgenomic replicon. Cells were cultured for 12 days in medium containing 10 μM 80978 and 1 mg/ml Geneticin™ (Invitrogen). Medium was changed every 3-4 days to replenish compound, and cells were split as needed to maintain subconfluent cultures. After 12 days of growth in the presence of 10 μM 80978, the concentration of 80978 was increased to 20 μM and cultured for an additional 19 days. Control Clone A cells were grown in parallel in the presence of diluent only. After this culture period, cells were evaluated for response to 80978.
Control cells and cells that had been cultured in the presence of 80978 were treated in triplicate with 3-fold serial dilutions of compound for 72 hours. At the end of this incubation period, total RNA was extracted, and HCV RNA levels were measured by quantitative RT-PCR using primers that recognize the 3′NTR.

[6] = test system: genotype 1b (Con1 strain) replicon with NS4B S1949Y mutation; assay: S1949Y mutant reporter replicon IVT RNA in Huh7.5 cells; details: Hepatitis C virus
Description: To identify nucleotide changes that confer resistance to 80978, replicon RNA was reverse transcribed and amplified from total RNA extracted from 80978-resistant and control Clone A cells. […] One silent mutation at amino acid 1771 was also observed. Each mutation was introduced independently into a stable genotype 1b (Con1 strain) subgenomic reporter replicon plasmid via site-directed mutagenesis. […] The sequence of the wild type NS4B encoding sequence is provided as SEQ ID NO:1, the sequence of the mutated NS4B nucleotide sequence encoding the F1809V mutation is provided as SEQ ID NO:3, and the sequence of the mutated NS4B nucleotide sequence encoding the F1809L mutation is provided as SEQ ID NO:5. The sequence of the wild type NS4B protein is provided as SEQ ID NO:2, the sequence of the mutated NS4B protein with the F1809V mutation is provided as SEQ ID NO:4, and the sequence of the mutated NS4B nucleotide sequence encoding the F1809L mutation is provided as SEQ ID NO:6. […] A differential response was observed between cells electroporated with different replicon RNAs.

SMILES: O=C(NCc1cccs1)c1nn2c(c1Cl)N[C@H](c1ccco1)C[C@@H]2C(F)(F)F (single isomer, unassigned) [Compound 80978]
- pEC50 ([1]; FIG. 2, compounds other than 80978 as racemates, read-out: EC50 for inhibition of HCV RNA replication): 6.05
- pEC50 ([1]; Experiment 1, genotype 1b, RT-PCR, read-out: EC50): 5.76 to 6.05
- pEC50 [2]: 5.14
- CC50 at 72 h [3]: > 20 µM
- pEC50 [4]: 5.11
- pEC50 [5]: 5.75
- pEC50 [6]: 6.39
